Results on four compounds are retold here after article PMC3380826 (2012).

Experiment [1] relates to Hum24; d(T2AG3)4 (DNA, G4) TTAGGGTTAGGGTTAGGGTTAGGG
In words: CD melting at 295 nm. The settings on record: 10 mM Tris-HCl, 0.1 mM EDTA, pH 7.4, pre-formed G4, 2 µM strand.

For experiment [2], the system named is Hum48; d(T2AG3)8 (DNA, G4) TTAGGGTTAGGGTTAGGGTTAGGGTTAGGGTTAGGGTTAGGGTTAGGG
In words: CD melting at 295 nm. Particulars: 10 mM Tris-HCl, 0.1 mM EDTA, pH 7.4, pre-formed G4, 2 µM strand.

In general, ΔTm refers to the shift of the melting midpoint relative to a reference.

As to `CCOc1cc(-c2nc3ccc(N4CCN(CCO)CC4)cc3[nH]2)cc(-c2nc3ccc(N4CCN(CCO)CC4)cc3[nH]2)c1`, the ΔTm was determined as 5 °C in experiment [1] (100 mM K+, ligand:DNA 20) and 9 °C in experiment [2] (100 mM K+, ligand:DNA 20).
For the compound `OCCN1CCN(c2ccc3[nH]c(-c4cc(OCCOCCOCCOCCOCCOCCOc5cc(-c6nc7cc(N8CCN(CCO)CC8)ccc7[nH]6)cc(-c6nc7cc(N8CCN(CCO)CC8)ccc7[nH]6)c5)cc(-c5nc6cc(N7CCN(CCO)CC7)ccc6[nH]5)c4)nc3c2)CC1`, the shift in melting temperature (ΔTm) in experiment [1] (100 mM K+, ligand:DNA 10) was 22 °C; in experiment [1] (100 mM Na+, ligand:DNA 10), 11 °C; in experiment [2] (100 mM K+, ligand:DNA 10), 21 °C; in experiment [2] (100 mM Na+, ligand:DNA 10) it was 13 °C.
For `OCCN1CCN(c2ccc3[nH]c(-c4cc(OCCOCCOCCOCCOc5cc(-c6nc7cc(N8CCN(CCO)CC8)ccc7[nH]6)cc(-c6nc7cc(N8CCN(CCO)CC8)ccc7[nH]6)c5)cc(-c5nc6cc(N7CCN(CCO)CC7)ccc6[nH]5)c4)nc3c2)CC1`, the ΔTm in experiment [1] (100 mM K+, ligand:DNA 10) came to 16 °C; in experiment [2] (100 mM K+, ligand:DNA 10), 16 °C.
Regarding `OCCN1CCN(c2ccc3[nH]c(-c4cc(OCCOCCOCCOCCOCCOc5cc(-c6nc7cc(N8CCN(CCO)CC8)ccc7[nH]6)cc(-c6nc7cc(N8CCN(CCO)CC8)ccc7[nH]6)c5)cc(-c5nc6cc(N7CCN(CCO)CC7)ccc6[nH]5)c4)nc3c2)CC1`, the ΔTm in experiment [1] (100 mM K+, ligand:DNA 10) amounted to 12 °C; in experiment [2] (100 mM K+, ligand:DNA 10), 18 °C.
